# Reference: patent US12208093B2 (THE JOHNS HOPKINS UNIVERSITY, priority 2016, dated 2025)
# Legend:
# HCMV entry = assay: Virus entry immunofluorescence assay for pp65; format: cell-based; conditions: emetine 75 nM, GCV 10 μM, CpG 2006 10 μM; added 24 h prior to infection
# Protocol: Immunofluorescence. […] Compounds were diluted in serum-free medium and added to HFFs seeded on chamber slides 24 h prior to infection. After infection and treatment, cells were fixed, permeabilized, and air-dried. Cells were then incubated with mouse monoclonal anti-pp65 antibody at 37° C. in humidified chambers for 1 h, washed three times with 0.1% Tween 20 in PBS (PBST), incubated with rhodamine conjugated anti-mouse IgG (Sigma Chemical Co) at 37° C. in humidified chambers for 1 h, and washed with PBST (0.1% Tween 20). A drop of mount oil containing DAPI (4,6-diamidino-2-phenylindole) (Santa Cruz) was added to the slides before visualization with a Nikon Eclipse E-800 fluorescence microscope.
# [1] = system: pp28-luciferase HCMV Towne; assay: microbe, parasite or virus in culture; format: cell-based, human cytomegalovirus (HCMV); conditions: HFFs 0.5-2 million cells/plate; emetine 75 nM, GCV 5 μM
# Excerpt: A GCV-resistant pp28-luciferase HCMV strain, with a C607Y mutation in UL97 was also used. The recombinant viruses express luciferase under the control of the late CMV gene promoter, pp28. […] The recombinant viruses provide a highly-sensitive and reproducible reporter system which correlates with the classic plaque reduction assay. […] Human herpes virus strains were: luciferase HSV1-KOS/Dlux/oriS and clinical isolates of HSV2.
# Cell culture, virus infection and anti-viral assays. […] Infection with HCMV or HSV was performed in HFFs, and infection with mouse CMV was performed in MEFs. For HCMV, cells were seeded in either a 96-well plate or 100 mm culture plates (Corning Costar, Sigma Aldrich) at 0.5 or 2 million cells/plate. Following 90 minute adsorption, media was removed and cells were washed with PBS. Media containing 4% FBS and compounds were added to each well. Infected treated HFFs were collected at 72 hpi and lysates were assayed for luciferase activity using a luciferase assay kit (Promega, Madison, WI) on GloMax®-Multi+Detection System (Promega). In second cycle assays, supernatants were collected from all conditions of the first cycle at 96 hpi and used for infection of fresh HFFs in 96-well-plates. […] For HSV1-KOS/Dlux/oriS, a luciferase assay was performed at 24 hpi. Plaque assays were performed with clinical isolates of HSV2 and HCMV Towne. […] Following virus adsorption (60 min and 90 min for HSV and HCMV, respectively), virus was aspirated, and DMEM containing 4% fetal bovine serum (FBS) with (for HSV) or without (for HCMV) 0.5% carboxymethyl-cellulose, were added with the compounds at indicated concentrations into triplicate wells. After incubation at 37° C. for 10 days (for HCMV) or 2 days (for HSV), the overlay was removed and plaques were counted after crystal violet staining.
# HCMV = assay: Generation of drug resistant virus; format: cell-based, human cytomegalovirus (HCMV); conditions: 5 passages, two fold increases of concentration
# Protocol: Generation of drug resistant virus. Screening of drug resistant virus was performed as reported. Two million cells were plated on a 6-well plate and infected with HCMV (MOI 0.05). […] The cells were maintained in DMEM with 4% FBS until plaques were observed. The supernatants from these plates were used to infect fresh HFFs in a 6-well plate and each time drug concentration was increased by two fold. […] DNA extracted from supernatants collected at the last stage was used for UL97 sequencing.
# MDM2-IE2 interaction = assay: Co-immunoprecipitation of MDM2 and IE2 in transfected HEK293 cells; format: cell-based; conditions: HEK293 cells transfected with IE1/2; emetine 75 nM or GCV 5 μM, 4 h
# Protocol: Transient transfections. HEK-293 cells seeded into 10 cm petri dishes were transfected with HCMV plasmid encoding IE1 and IE2 (pRL45) plasmid, 1 μg/dish, using Lipofectamine 2000 in serum free medium. After 6 h, 10% FBS containing media was added along with 10 μM of MG132. […] Cells were then harvested to prepare lysates for IP.
# Co-immunoprecipitation (IP) and immunoblotting. Non-infected, infected or emetine-treated HFFs were treated with MG132 (10 μM) for 12 h. Cells were harvested after 24 hpi and lysed with IP buffer containing 150 mM NaCl, 50 mM Tris pH 7.5, 2 mM EDTA, 0.5% TritonX-100 and 0.5% NP-40-40. 1 mg of lysate was precleared with bead slurry for 30 min. The precleared lysates were incubated with anti-MDM2 (2 μg) antibody overnight. The antibody complexes were isolated using protein A/G beads (Santa Cruz), washed three times with 50% IP buffer. The immunoprecipitate—protein A/G beads were boiled in SDS sample buffer, and the supernatant was analyzed on SDS-PAGE gels after immunoblotting as described previously. […] Reverse IPs were performed by pulling down the precleared lysates with either anti-p53 antibody or anti-RPS14 antibody and detected with MDM2. […] In other experiments, transfected or treated HEK293 cell lysates were pulled-down with anti-IE2 antibody and detected with anti-MDM2 antibody and vice-versa for reverse IP.
structure (smiles),measurement,setting,value
"Nc1nc(O)c2ncn(COC(CO)CO)c2n1 [GCV, Ganciclovir]",inhibition of viral entry,HCMV entry,neither emetine nor GCV inhibited viral entry
same,HCMV inhibition in relation to cell density at time of infection,[1],inhibited HCMV replication irrespective of cell density
same,selection of resistant virus with increasing drug concentration,HCMV,did select for resistant mutants
same,interaction of MDM2 and IE2,MDM2-IE2 interaction,no effect
